Experimental data: patent publication US12076329B2, “Compositions and methods for enhancing visual function” (The Regents of the University of California, priority 2020, dated 2024)

Legend:
Format in all cases: in vivo, mouse
[1] = system: rd1 mice expressing SNAP-mGluR2 in RGCs; assay: 2-chamber light/dark light aversion test, SNAP-mGluR2 in RGCs
Protocol: (§1) Mouse experiments were conducted under the express approval of the University of California Animal Care and Use Committee, wt mice (C57BL/6J) and rd1 mice (C3H) were purchased from the Jackson Laboratory and housed on a 12-h light/dark cycle with food and water ad libitum. cDNA encoding SNAP-mGluR2 was inserted in an established viral cassette under control of either the human synapsin promoter (hsyn-1) for expression in RGCs or a 4-copy concatemer of the mouse grm6 minimal promoter (4×grm6) for expression in ON-BCs and packaged in the AAV 2/2-4YF capsid. The vector, containing 10^10-10^12 viral genomes was delivered in a 2 µl volume to the vitreous of the rd1 mouse eye via microinjection. rAAV injections were at p30-p60 and in vivo and in vitro experiments at p90-p160. AAVs were produced as previously described.
Photoswitch compounds were synthesized using the protocol described in Broichhagen, J., et al. (2015) ACS Cent Sci 1, 383-393. Stock solution of […] BGAG12,460 (L-diastereomer) in 100% pharmaceutical grade DMSO (Cryoserv; Bioniche Pharma) was diluted 1:100 in sterile PBS for a final working solution of 1 mM in 1% DMSO. Working solutions were either prepared before administration, prepared in stock stored in the freezer and used as required, or salvaged from the recording bath and stored (either RT or freezer) for reuse. Application of BGAG12,460 or BGAG12 on retinal explants were performed in a volume of 200 μL at a concentration of 50 μM to 50 nM BGAG12,460 (in PBS with >1% DMSO). For in vivo behavioral experiments, a 2-μL volume of 1 mM or 3.5 μL (final vitreal concentration of […]) of BGAG12,460 solution (in PBS with 1% DMSO) was injected into eyes that treated with AAV>6 wks earlier). For in vivo concentration dependence experiments, the mouse eye was assumed to contain a volume of 5.3 μL and a 2-μL volume of 3.5 μM, 1.825 μM and 0.1825 μM BGAG12,460 solution (in PBS with 1% DMSO) was injected into eyes to obtain a final concentration of 1 μM, 500 nM and 50 nM^62. For hydrated slow release 5% pharmaceutical grade beta cyclodextrin (cyclodex) in PBS was mixed with BGAG12,460 for a final concentration of 3 μM and 2 μL were injected bilaterally into the mouse eye. MAG0460 was synthesized and administered in 2 μL at a concentration of 100 μM.
(§2) The 2-chamber light-dark passive avoidance test was performed. White light (wavelength range) at ˜100 μW cm^2 or either blue light (460/45 nm) or green light (535/50 nm) at 0.5-25 μW cm^2 was mounted above the chamber with homogeneously distributed light.
(§3) Animal movements were tracked using IR sensors on the shuttle box. Time spent in the light and dark chambers was measured and analyzed using Graphic State and Graphic State RT (Coulbourn Instruments).
Natural light aversion behavior was tested. […]

[2] = system: rd1 mice expressing SNAP-mGluR2 in ON-BCs; assay: 2-chamber light/dark light aversion test, SNAP-mGluR2 in ON-BCs; conditions: in PBS intravitreal
Protocol: as §1, §2, §3
Whether ^4×BGAG12,460:SNAP-mGluR2 would also restore light perception in ON-BCs was tested. […]

[3] = system: rd1 mice expressing SNAP-mGluR2 in RGCs; assay: Line pattern recognition (learned aversive association, iPad displays), SNAP-mGluR2 in RGCs; conditions: for line pattern recognition in moving displays (lines 1 or 6 cm apart): displays moving at 4 or 8 cm/s; for high-acuity line pattern recognition, 0.5 cm wide lines separated by 0.25 or 0.5 cm: in PBS intravitreal
Protocol: Modified active avoidance was assayed as previously described^19, using the Coulbourn shuttle box (H10-11M-SC), however, now iPad tablet screens were mounted onto the shuttle cage wall, each displaying one of two images that differed in orientation or distance between two lines but were otherwise of equal shape, size, and light intensity. The aversive image side was paired with a foot shock of 0.7 mA. Upon recall the light patterns were reversed to avoid a bias for location and time spent on each side was recorded. Adaptation was tested by dimming or brightening the display to different intensities.
As shown above, ^4×BGAG12,460:SNAP-mGluR2 in either RGCs or ON-BCs confers high sensitivity light perception. It was asked whether ^4×BGAG12,460:SNAP-mGluR2 would support patterned vision. The ability of treated and untreated rd1 mice to discriminate between two different line patterns in a learned negative association task was tested. The task is carried out in a 2-chamber arena, where the floor in each chamber is conductive and can apply an independent aversive mild foot shock. […] The mouse was trained for two days, during which a mild foot shock was given in one of the chambers. The line pattern associated with the foot shock was assigned randomly initially but then kept consistent for that animal throughout the 2 days of training. […] The chambers were cleaned thoroughly before and after each training or test session to remove olfactory clues. The room was kept dark to avoid room reference visual cues. And the aversive and non-aversive cues were switched between the end of the second day of training and the test day to avoid location bias.
To further assess the restored line pattern recognition, the lines were made thinner and the separation between the lines was reduced.
The kinetics of onset, decay and recovery of the restored light response are expected to affect the ability to recognize a visual pattern. […] Thus, the speed limit of ^4×BGAG12,460:SNAP-mGluR2 in RGCs is ≥8 cm/s, whereas that of medium wave cone opsin in RGCs is ≤4 cm/s.

Q: Which results are given for `Nc1nc(OCc2ccc(CNC(=O)CCCC(=O)N[C@H](CCC(=O)N[C@H](CCC(=O)NCCOCCOCCOCCOCCOCCOCCOCCOCCOCCOCCOCCOCCC(=O)NCCNc3ccc(/N=N/c4ccc(NC(=O)CCC[C@@H](C[C@H](N)C(=O)O)C(=O)O)cc4)cc3)C(=O)NCCOCCOCCOCCOCCOCCOCCOCCOCCOCCOCCOCCOCCC(=O)NCCNc3ccc(/N=N/c4ccc(NC(=O)CCC[C@@H](C[C@H](N)C(=O)O)C(=O)O)cc4)cc3)C(=O)N[C@H](CCC(=O)NCCOCCOCCOCCOCCOCCOCCOCCOCCOCCOCCOCCOCCC(=O)NCCNc3ccc(/N=N/c4ccc(NC(=O)CCC[C@@H](C[C@H](N)C(=O)O)C(=O)O)cc4)cc3)C(=O)NCCOCCOCCOCCOCCOCCOCCOCCOCCOCCOCCOCCOCCC(=O)NCCNc3ccc(/N=N/c4ccc(NC(=O)CCC[C@@H](C[C@H](N)C(=O)O)C(=O)O)cc4)cc3)cc2)c2nc[nH]c2n1` [^4×BGAG12,460]?
A: dark preference three weeks after injection ([1]; in PBS intravitreal): disappeared; light aversion (time in dark versus illuminated chamber) ([1]; in PBS intravitreal, first week after injection, white screen 88 uW/cm^2): spent more time in the dark chamber than in the illuminated chamber; light aversion at 0.2 μW/cm^2 ([1]; intensity-response relation): operating at chance; light intensity giving maximal light-aversion behavior ([1]; intensity-response relation): 25 μW/cm^2; week post-injection by which dark preference disappeared [2]: ≤ 3 week; light aversion (time in dark chamber) ([2]; first week after injection): spent more time in the dark chamber; speed limit of line pattern recognition in moving displays [3]: ≥ 8 cm/s; line pattern recognition in moving displays (lines 1 or 6 cm apart) [3]: performed as well as wildtype animals when the line displays moved at either 4 or 8 cm/s; line pattern recognition in moving displays (lines 1 or 6 cm apart) ([3]; listed as 4×BGAG): supports line pattern recognition as well as wildtype vision when visual displays move at 8 cm/s; high-acuity line pattern recognition, 0.5 cm wide lines separated by 0.25 or 0.5 cm [3]: enabled the rd1 mice to perform the task and to do so as well as wildtype mice; high-acuity line pattern recognition, 0.5 cm wide lines separated by 0.25 or 0.5 cm ([3]; listed as 4×BGAG): supports line pattern recognition approaching wild-type acuity limit; line pattern recognition, parallel lines spaced 1 versus 6 cm ([3]; in PBS, trained and tested within a week after intravitreal injection): spent more time on the side of the non-aversive visual display
